tested on: not listed separately; experiment: DRUGMATRIX: ATPase, Na+/K+ enzyme inhibition (substrate: ATP); format: tissue-based, Sus scrofa, Heart; details: Not Active = under 50% inhibition at 10 µM

Row | SMILES | IC50 | Ki
1 | CC(C)(S)[C@@H](N)C(=O)O [PENICILLAMINE] | Not Active | Not Active
2 | O=C(O)c1cn(C2CC2)c2cc(N3CCNCC3)c(F)cc2c1=O [CIPROFLOXACIN] | Not Active | Not Active
3 | C=C(C)[C@@H]1[C@H]2OC(=O)[C@@H]1[C@]1(O)C[C@H]3O[C@]34C(=O)O[C@H]2[C@]14C [PICROTOXININ] | Not Active | Not Active

biological target: C-C chemokine receptor type 2 (Homo sapiens, UniProt P41597); experiment: not given; format: cell membranes, CHO-K1, Membrane; details: cho-k1; also: in other assays of this panel Not Active means under 50% inhibition at 10 µM
Sequence (P41597 whole entry): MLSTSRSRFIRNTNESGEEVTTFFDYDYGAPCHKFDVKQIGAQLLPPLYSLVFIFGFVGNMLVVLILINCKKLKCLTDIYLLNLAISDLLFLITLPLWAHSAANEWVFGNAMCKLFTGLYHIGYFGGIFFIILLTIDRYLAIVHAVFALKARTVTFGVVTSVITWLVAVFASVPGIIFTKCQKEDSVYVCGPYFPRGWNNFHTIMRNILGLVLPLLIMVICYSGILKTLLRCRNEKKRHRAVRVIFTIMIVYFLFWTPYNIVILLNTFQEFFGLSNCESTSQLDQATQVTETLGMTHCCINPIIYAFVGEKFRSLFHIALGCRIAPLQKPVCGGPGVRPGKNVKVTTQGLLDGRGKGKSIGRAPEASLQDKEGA

Row | SMILES | IC50
4 | CC(C)(S)[C@@H](N)C(=O)O [PENICILLAMINE] | Not Active
5 | O=C(O)c1cn(C2CC2)c2cc(N3CCNCC3)c(F)cc2c1=O [CIPROFLOXACIN] | Not Active
6 | C=C(C)[C@@H]1[C@H]2OC(=O)[C@@H]1[C@]1(O)C[C@H]3O[C@]34C(=O)O[C@H]2[C@]14C [PICROTOXININ] | Not Active

biological target: T1, C-C chemokine receptor type 4 (Homo sapiens, UniProt P51679); experiment: not given; format: cell membranes, Membrane; details: chem-1; also: in other assays of this panel Not Active means under 50% inhibition at 10 µM
T1 sequence (P51679 whole entry): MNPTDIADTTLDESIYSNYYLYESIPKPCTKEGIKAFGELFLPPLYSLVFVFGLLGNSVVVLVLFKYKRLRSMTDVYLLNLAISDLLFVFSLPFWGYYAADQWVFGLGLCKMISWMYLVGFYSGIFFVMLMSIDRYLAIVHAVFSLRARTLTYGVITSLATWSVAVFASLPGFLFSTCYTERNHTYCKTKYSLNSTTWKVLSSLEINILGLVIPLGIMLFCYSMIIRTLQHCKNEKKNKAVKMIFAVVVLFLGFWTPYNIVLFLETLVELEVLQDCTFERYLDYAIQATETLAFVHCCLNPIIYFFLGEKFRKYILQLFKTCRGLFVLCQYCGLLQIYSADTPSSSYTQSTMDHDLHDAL

Row | SMILES | IC50
7 | CC(C)(S)[C@@H](N)C(=O)O [PENICILLAMINE] | Not Active
8 | O=C(O)c1cn(C2CC2)c2cc(N3CCNCC3)c(F)cc2c1=O [CIPROFLOXACIN] | Not Active
9 | C=C(C)[C@@H]1[C@H]2OC(=O)[C@@H]1[C@]1(O)C[C@H]3O[C@]34C(=O)O[C@H]2[C@]14C [PICROTOXININ] | Not Active

tested on: not listed separately; experiment: DRUGMATRIX: Glutamate, AMPA radioligand binding (ligand: [3H] AMPA); format: cell membranes, Rattus norvegicus, Wistar, Cerebral cortex, Membrane; details: Not Active = under 50% inhibition at 10 µM

Row | SMILES | IC50 | Ki
10 | CC(C)(S)[C@@H](N)C(=O)O [PENICILLAMINE] | Not Active | Not Active
11 | O=C(O)c1cn(C2CC2)c2cc(N3CCNCC3)c(F)cc2c1=O [CIPROFLOXACIN] | Not Active | Not Active
12 | C=C(C)[C@@H]1[C@H]2OC(=O)[C@@H]1[C@]1(O)C[C@H]3O[C@]34C(=O)O[C@H]2[C@]14C [PICROTOXININ] | Not Active | Not Active

tested on: not listed separately; experiment: DRUGMATRIX: Glutamate, Kainate radioligand binding (ligand: [3H] Kainic acid); format: cell membranes, Rattus norvegicus, Wistar, Brain, Membrane; details: Not Active = under 50% inhibition at 10 µM

Row | SMILES | IC50 | Ki
13 | CC(C)(S)[C@@H](N)C(=O)O [PENICILLAMINE] | Not Active | Not Active
14 | O=C(O)c1cn(C2CC2)c2cc(N3CCNCC3)c(F)cc2c1=O [CIPROFLOXACIN] | Not Active | Not Active
15 | C=C(C)[C@@H]1[C@H]2OC(=O)[C@@H]1[C@]1(O)C[C@H]3O[C@]34C(=O)O[C@H]2[C@]14C [PICROTOXININ] | Not Active | Not Active

biological target: Insulin receptor (Rattus norvegicus, UniProt P15127); experiment: not given; format: cell membranes, Wistar, Liver, Membrane; details: not given; also: in other assays of this panel Not Active means under 50% inhibition at 10 µM
Sequence (P15127 27-759 limits assumed): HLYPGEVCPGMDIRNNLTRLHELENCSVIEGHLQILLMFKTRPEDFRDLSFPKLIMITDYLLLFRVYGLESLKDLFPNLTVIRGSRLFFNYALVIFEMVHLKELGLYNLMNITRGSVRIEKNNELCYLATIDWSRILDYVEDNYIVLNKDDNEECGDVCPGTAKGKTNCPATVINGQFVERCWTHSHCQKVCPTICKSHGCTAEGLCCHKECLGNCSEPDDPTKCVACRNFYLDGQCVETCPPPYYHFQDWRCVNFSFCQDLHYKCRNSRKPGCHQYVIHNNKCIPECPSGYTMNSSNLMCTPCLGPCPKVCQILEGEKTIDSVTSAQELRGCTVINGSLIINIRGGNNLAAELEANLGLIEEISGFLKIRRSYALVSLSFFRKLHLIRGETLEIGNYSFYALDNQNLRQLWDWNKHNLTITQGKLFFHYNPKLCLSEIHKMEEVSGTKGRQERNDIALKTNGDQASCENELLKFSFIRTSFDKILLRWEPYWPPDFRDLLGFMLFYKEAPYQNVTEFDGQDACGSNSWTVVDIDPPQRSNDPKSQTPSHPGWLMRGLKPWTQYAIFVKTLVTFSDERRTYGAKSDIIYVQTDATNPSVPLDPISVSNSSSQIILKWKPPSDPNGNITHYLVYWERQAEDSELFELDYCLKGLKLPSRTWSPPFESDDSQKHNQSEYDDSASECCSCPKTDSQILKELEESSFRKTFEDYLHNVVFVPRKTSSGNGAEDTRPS
Sequence (P15127 764-1383 limits assumed): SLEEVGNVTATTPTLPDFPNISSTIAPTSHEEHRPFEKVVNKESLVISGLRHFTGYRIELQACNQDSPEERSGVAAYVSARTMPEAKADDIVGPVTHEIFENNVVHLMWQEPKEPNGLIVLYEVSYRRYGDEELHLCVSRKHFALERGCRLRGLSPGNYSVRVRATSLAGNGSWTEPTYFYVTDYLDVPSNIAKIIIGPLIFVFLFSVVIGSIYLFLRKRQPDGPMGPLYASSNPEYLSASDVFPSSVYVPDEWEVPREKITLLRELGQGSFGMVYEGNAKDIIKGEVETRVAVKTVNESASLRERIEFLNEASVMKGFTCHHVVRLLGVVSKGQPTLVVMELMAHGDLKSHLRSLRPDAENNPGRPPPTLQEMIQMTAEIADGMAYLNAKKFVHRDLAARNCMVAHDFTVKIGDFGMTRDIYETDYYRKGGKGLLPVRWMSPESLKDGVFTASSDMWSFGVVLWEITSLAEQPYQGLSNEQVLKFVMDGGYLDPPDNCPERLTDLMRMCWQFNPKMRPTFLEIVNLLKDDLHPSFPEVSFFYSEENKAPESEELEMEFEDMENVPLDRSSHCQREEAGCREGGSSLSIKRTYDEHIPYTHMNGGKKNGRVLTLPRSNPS

Row | SMILES | IC50
16 | CC(C)(S)[C@@H](N)C(=O)O [PENICILLAMINE] | Not Active
17 | O=C(O)c1cn(C2CC2)c2cc(N3CCNCC3)c(F)cc2c1=O [CIPROFLOXACIN] | Not Active
18 | C=C(C)[C@@H]1[C@H]2OC(=O)[C@@H]1[C@]1(O)C[C@H]3O[C@]34C(=O)O[C@H]2[C@]14C [PICROTOXININ] | Not Active

biological target: T2, Leukotriene C4 synthase (Cavia porcellus, UniProt A6XA80); experiment: biochemical; format: tissue-based, Lung; details: not given;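 also: enzyme inhibition assay of leukotriene C4 synthase, using LTA4 as the substrate; in other assays of this panel Not Active means under 50% inhibition at 10 µM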
T2 sequence (A6XA80 whole entry): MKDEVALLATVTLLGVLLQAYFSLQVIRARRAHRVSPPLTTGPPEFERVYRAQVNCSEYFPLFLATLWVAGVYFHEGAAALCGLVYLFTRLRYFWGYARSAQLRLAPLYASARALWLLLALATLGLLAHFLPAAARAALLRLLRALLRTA

Row | SMILES | IC50
19 | CC(C)(S)[C@@H](N)C(=O)O [PENICILLAMINE] | Not Active
20 | O=C(O)c1cn(C2CC2)c2cc(N3CCNCC3)c(F)cc2c1=O [CIPROFLOXACIN] | Not Active
21 | C=C(C)[C@@H]1[C@H]2OC(=O)[C@@H]1[C@]1(O)C[C@H]3O[C@]34C(=O)O[C@H]2[C@]14C [PICROTOXININ] | Not Active

biological target: T3, Neuropeptide Y receptor type 1 (Homo sapiens, UniProt P25929); experiment: not given; format: cell membranes, Membrane; details: sk-n-mc; also: in other assays of this panel Not Active means under 50% inhibition at 10 µM
T3 sequence (P25929 whole entry): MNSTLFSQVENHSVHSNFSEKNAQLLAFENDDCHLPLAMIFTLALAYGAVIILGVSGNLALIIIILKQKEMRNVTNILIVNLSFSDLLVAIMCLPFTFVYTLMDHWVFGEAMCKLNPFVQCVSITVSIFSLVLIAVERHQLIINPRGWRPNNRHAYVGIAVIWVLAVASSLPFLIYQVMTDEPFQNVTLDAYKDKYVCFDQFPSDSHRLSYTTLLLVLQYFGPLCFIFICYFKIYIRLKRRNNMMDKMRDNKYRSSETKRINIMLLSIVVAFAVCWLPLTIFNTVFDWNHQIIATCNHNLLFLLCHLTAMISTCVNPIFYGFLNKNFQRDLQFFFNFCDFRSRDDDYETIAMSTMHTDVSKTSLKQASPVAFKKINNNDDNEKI

Row | SMILES | IC50
22 | CC(C)(S)[C@@H](N)C(=O)O [PENICILLAMINE] | Not Active
23 | O=C(O)c1cn(C2CC2)c2cc(N3CCNCC3)c(F)cc2c1=O [CIPROFLOXACIN] | Not Active
24 | C=C(C)[C@@H]1[C@H]2OC(=O)[C@@H]1[C@]1(O)C[C@H]3O[C@]34C(=O)O[C@H]2[C@]14C [PICROTOXININ] | Not Active

biological target: T4, Nitric oxide synthase, inducible (Mus musculus, UniProt P29477); experiment: not given; design: species or system Escherichia coli; details: not given
T4 sequence (P29477 whole entry): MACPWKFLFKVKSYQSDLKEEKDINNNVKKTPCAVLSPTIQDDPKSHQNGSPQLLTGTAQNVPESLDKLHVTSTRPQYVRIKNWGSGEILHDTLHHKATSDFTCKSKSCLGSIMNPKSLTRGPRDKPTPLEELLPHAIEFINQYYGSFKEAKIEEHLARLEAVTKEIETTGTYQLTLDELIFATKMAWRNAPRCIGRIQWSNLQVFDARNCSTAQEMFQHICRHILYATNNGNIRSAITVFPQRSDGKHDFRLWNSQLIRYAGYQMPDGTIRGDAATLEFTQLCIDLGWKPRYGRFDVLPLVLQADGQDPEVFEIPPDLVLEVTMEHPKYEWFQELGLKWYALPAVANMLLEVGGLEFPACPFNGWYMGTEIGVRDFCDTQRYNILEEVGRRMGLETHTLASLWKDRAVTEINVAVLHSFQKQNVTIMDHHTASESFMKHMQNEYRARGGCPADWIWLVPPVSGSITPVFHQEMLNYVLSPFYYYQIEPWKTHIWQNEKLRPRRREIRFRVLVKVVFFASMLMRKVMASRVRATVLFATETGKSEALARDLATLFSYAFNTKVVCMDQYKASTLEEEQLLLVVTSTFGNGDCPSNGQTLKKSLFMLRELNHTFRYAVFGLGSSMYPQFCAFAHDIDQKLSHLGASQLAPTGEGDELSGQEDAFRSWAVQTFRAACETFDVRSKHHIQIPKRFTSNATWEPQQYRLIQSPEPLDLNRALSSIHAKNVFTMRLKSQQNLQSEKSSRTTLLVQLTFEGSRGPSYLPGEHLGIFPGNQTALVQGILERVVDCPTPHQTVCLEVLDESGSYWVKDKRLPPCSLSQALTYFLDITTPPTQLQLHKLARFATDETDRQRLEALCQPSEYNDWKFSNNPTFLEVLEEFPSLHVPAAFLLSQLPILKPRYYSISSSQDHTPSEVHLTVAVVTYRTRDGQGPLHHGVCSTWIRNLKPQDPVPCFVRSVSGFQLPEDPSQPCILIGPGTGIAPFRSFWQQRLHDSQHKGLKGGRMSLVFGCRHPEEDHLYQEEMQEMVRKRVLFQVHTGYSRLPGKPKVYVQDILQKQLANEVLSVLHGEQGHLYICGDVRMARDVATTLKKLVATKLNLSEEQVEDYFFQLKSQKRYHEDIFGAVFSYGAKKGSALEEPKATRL

Row | SMILES | IC50
25 | CC(C)(S)[C@@H](N)C(=O)O [PENICILLAMINE] | Not Active
26 | O=C(O)c1cn(C2CC2)c2cc(N3CCNCC3)c(F)cc2c1=O [CIPROFLOXACIN] | Not Active
27 | C=C(C)[C@@H]1[C@H]2OC(=O)[C@@H]1[C@]1(O)C[C@H]3O[C@]34C(=O)O[C@H]2[C@]14C [PICROTOXININ] | Not Active

tested on: not listed separately; experiment: DRUGMATRIX: Phorbol Ester radioligand binding (ligand: [3H] PDBu); format: cell membranes, Mus musculus, ICR, Brain, Membrane; details: Not Active = under 50% inhibition at 10 µM

Row | SMILES | IC50 | Ki
28 | CC(C)(S)[C@@H](N)C(=O)O [PENICILLAMINE] | Not Active | Not Active
29 | O=C(O)c1cn(C2CC2)c2cc(N3CCNCC3)c(F)cc2c1=O [CIPROFLOXACIN] | Not Active | Not Active
30 | C=C(C)[C@@H]1[C@H]2OC(=O)[C@@H]1[C@]1(O)C[C@H]3O[C@]34C(=O)O[C@H]2[C@]14C [PICROTOXININ] | Not Active | Not Active

biological target: cGMP-specific 3',5'-cyclic phosphodiesterase (Homo sapiens, UniProt O76074); experiment: DRUGMATRIX: Phosphodiesterase PDE5 enzyme inhibition (substrate: [3H]cGMP + cGMP); format: tissue-based, Platelet; details: platelet; Not Active = under 50% inhibition at 10 µM

Row | SMILES | IC50
31 | CC(C)(S)[C@@H](N)C(=O)O [PENICILLAMINE] | Not Active
32 | O=C(O)c1cn(C2CC2)c2cc(N3CCNCC3)c(F)cc2c1=O [CIPROFLOXACIN] | Not Active
33 | C=C(C)[C@@H]1[C@H]2OC(=O)[C@@H]1[C@]1(O)C[C@H]3O[C@]34C(=O)O[C@H]2[C@]14C [PICROTOXININ] | Not Active

biological target: T5, Neutrophil elastase (Homo sapiens, UniProt P08246); experiment: not given; format: tissue-based; details: not given
T5 sequence (P08246 whole entry): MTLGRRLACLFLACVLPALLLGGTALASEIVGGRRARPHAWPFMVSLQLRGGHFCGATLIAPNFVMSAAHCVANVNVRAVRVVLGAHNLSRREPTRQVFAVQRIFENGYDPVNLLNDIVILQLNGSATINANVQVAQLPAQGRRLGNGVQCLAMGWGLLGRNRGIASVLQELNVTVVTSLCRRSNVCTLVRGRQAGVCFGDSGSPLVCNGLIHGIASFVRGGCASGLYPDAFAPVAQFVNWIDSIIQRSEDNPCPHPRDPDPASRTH

Row | SMILES | IC50
34 | CC(C)(S)[C@@H](N)C(=O)O [PENICILLAMINE] | Not Active
35 | O=C(O)c1cn(C2CC2)c2cc(N3CCNCC3)c(F)cc2c1=O [CIPROFLOXACIN] | Not Active
36 | C=C(C)[C@@H]1[C@H]2OC(=O)[C@@H]1[C@]1(O)C[C@H]3O[C@]34C(=O)O[C@H]2[C@]14C [PICROTOXININ] | Not Active

biological target: Estrogen receptor beta (Homo sapiens, UniProt Q92731); experiment: not given; details: sf9; also: in other assays of this panel Not Active means under 50% inhibition at 10 µM
Sequence (Q92731 whole entry): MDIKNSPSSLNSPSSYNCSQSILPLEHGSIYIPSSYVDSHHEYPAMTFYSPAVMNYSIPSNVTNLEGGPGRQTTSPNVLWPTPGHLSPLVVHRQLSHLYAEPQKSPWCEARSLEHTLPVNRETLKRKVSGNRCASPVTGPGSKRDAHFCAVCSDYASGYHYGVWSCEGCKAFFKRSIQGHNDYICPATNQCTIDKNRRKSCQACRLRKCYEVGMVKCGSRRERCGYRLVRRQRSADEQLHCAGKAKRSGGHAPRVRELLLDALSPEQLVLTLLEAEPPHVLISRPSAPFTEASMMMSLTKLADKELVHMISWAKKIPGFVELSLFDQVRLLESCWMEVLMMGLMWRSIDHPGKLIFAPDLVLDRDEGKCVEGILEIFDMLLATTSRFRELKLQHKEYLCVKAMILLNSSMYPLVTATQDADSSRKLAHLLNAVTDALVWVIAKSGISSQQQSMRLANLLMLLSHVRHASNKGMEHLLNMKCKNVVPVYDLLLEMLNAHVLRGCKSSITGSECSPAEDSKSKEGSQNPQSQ

Row | SMILES | IC50
37 | CC(C)(S)[C@@H](N)C(=O)O [PENICILLAMINE] | Not Active
38 | O=C(O)c1cn(C2CC2)c2cc(N3CCNCC3)c(F)cc2c1=O [CIPROFLOXACIN] | Not Active
39 | C=C(C)[C@@H]1[C@H]2OC(=O)[C@@H]1[C@]1(O)C[C@H]3O[C@]34C(=O)O[C@H]2[C@]14C [PICROTOXININ] | Not Active

Reference: ChEMBL document CHEMBL1909046, “DrugMatrix in vitro pharmacology data”
